Measurements: patent US6897244B2, “Dihydronootkatone and tetrahydronootkatone as repellents to arthropods” (Board of Supervisors of Louisiana State University and …, priority 2002, dated 2005)

Tested on: Formosan subterranean termites
Assay: Petri dish treated/untreated sand bioassay for repelling activity against termites
Format: in vivo, Coptotermes formosanus
Parameters: key to percent of termites on untreated sand vs expected value of 50% (Chi-Square, p≦0.05): “−” indicates the test was not significantly different from the expected value; “+” indicates the test was significantly different from the expected value
Method: A carton nest (colony A) of Formosan subterranean termites was collected in Algiers, Louisiana in November 1997, and held in 250-liter cans. The cans were filled with pine as a food source, and kept at a temperature range of 24-26° C. Moistened corrugated cardboard rolls were used to retrieve termites from the cans. Once the termites migrated to the cardboard rolls, they were gently knocked from the cardboard rolls into clean rectangular plastic trays (40 cm×50 cm). Retrieved termites were isolated from debris by allowing them to cling to sheets of moistened paper towels. The average weight of each termite was 1.21 mg.
To test for effectiveness of nootkatone, 1,10-dihydronootkatone and tetrahydronootkatone in repelling termites, a bioassay was conducted using Petri dishes (5 cm diameter and 1 cm height). To ensure adequate moisture for the termites, 1 ml of a hot agar solution (1.5% in H2O) was spread on the bottom of the Petri dish. After the agar cooled, sand that was treated as described below was spread on the bottom of the Petri dish. For the treated sand, purified 1,10-dihydronootkatone or tetrahydronootkatone were dissolved in 2 ml ethanol, and then diluted to achieve final concentrations of 1, 2, 5, 12.5, 25, 50, and 100 μg/g sand. The solution was mixed with 1 g sand that had been autoclaved and cooled. The control sand was autoclaved sand with only 200 μl ethanol added. One half of the surfaces in the Petri dishes were covered with 1 g treated sand, and the other half with 1 g untreated sand.
The prepared Petri dishes were then used to evaluate the repelling activity against Formosan subterranean termites. Ten worker termites were added to each Petri dish, and the dishes were covered to eliminate light. Five replicate dishes were tested for each concentration and for the control. Termite position was recorded every 15 min during the first hour of testing by counting the number of termites observed on untreated sand. After the first hour, termite position was recorded each hour for 3 hr.
Differences between the percent of termites on untreated sand and an expected value were statistically analyzed by a Chi-Square analysis, using an expected value of 50% and a significance level of p≦0.05.

C=C(C)C1CCC2CC(=O)CC(C)C2(C)C1 (centres unmarked) [Dihydronootkatone, 1,4,4a,5,6,7,8,10-octahydro-6-isopropenyl-4,4a-dimethyl-2(1H)-naphthalenone]
percent of termites on untreated sand vs expected value of 50% (Chi-Square, p≦0.05) (2 μg/dish, 0.25 hour): −
percent of termites on untreated sand vs expected value of 50% (Chi-Square, p≦0.05) (2 μg/dish, 0.5 hour): −
percent of termites on untreated sand vs expected value of 50% (Chi-Square, p≦0.05) (2 μg/dish, 0.75 hour): −
percent of termites on untreated sand vs expected value of 50% (Chi-Square, p≦0.05) (2 μg/dish, 1 hour): −
percent of termites on untreated sand vs expected value of 50% (Chi-Square, p≦0.05) (2 μg/dish, 2 hour): −
percent of termites on untreated sand vs expected value of 50% (Chi-Square, p≦0.05) (2 μg/dish, 3 hour): −
percent of termites on untreated sand vs expected value of 50% (Chi-Square, p≦0.05) (5 μg/dish, 0.25 hour): −
percent of termites on untreated sand vs expected value of 50% (Chi-Square, p≦0.05) (5 μg/dish, 0.5 hour): −
percent of termites on untreated sand vs expected value of 50% (Chi-Square, p≦0.05) (5 μg/dish, 0.75 hour): −
percent of termites on untreated sand vs expected value of 50% (Chi-Square, p≦0.05) (5 μg/dish, 1 hour): −
percent of termites on untreated sand vs expected value of 50% (Chi-Square, p≦0.05) (5 μg/dish, 2 hour): −
percent of termites on untreated sand vs expected value of 50% (Chi-Square, p≦0.05) (5 μg/dish, 3 hour): −
percent of termites on untreated sand vs expected value of 50% (Chi-Square, p≦0.05) (12.5 μg/dish, 0.25 hour): +
percent of termites on untreated sand vs expected value of 50% (Chi-Square, p≦0.05) (12.5 μg/dish, 0.5 hour): +
percent of termites on untreated sand vs expected value of 50% (Chi-Square, p≦0.05) (12.5 μg/dish, 0.75 hour): +
percent of termites on untreated sand vs expected value of 50% (Chi-Square, p≦0.05) (12.5 μg/dish, 1 hour): +
percent of termites on untreated sand vs expected value of 50% (Chi-Square, p≦0.05) (12.5 μg/dish, 2 hour): +
percent of termites on untreated sand vs expected value of 50% (Chi-Square, p≦0.05) (12.5 μg/dish, 3 hour): +
percent of termites on untreated sand vs expected value of 50% (Chi-Square, p≦0.05) (25 μg/dish, 0.25 hour): −
percent of termites on untreated sand vs expected value of 50% (Chi-Square, p≦0.05) (25 μg/dish, 0.5 hour): +
percent of termites on untreated sand vs expected value of 50% (Chi-Square, p≦0.05) (25 μg/dish, 0.75 hour): +
percent of termites on untreated sand vs expected value of 50% (Chi-Square, p≦0.05) (25 μg/dish, 1 hour): +
percent of termites on untreated sand vs expected value of 50% (Chi-Square, p≦0.05) (25 μg/dish, 2 hour): +
percent of termites on untreated sand vs expected value of 50% (Chi-Square, p≦0.05) (25 μg/dish, 3 hour): +
percent of termites on untreated sand vs expected value of 50% (Chi-Square, p≦0.05) (50 μg/dish, 0.25 hour): +
percent of termites on untreated sand vs expected value of 50% (Chi-Square, p≦0.05) (50 μg/dish, 0.5 hour): +
percent of termites on untreated sand vs expected value of 50% (Chi-Square, p≦0.05) (50 μg/dish, 0.75 hour): +
percent of termites on untreated sand vs expected value of 50% (Chi-Square, p≦0.05) (50 μg/dish, 1 hour): +
percent of termites on untreated sand vs expected value of 50% (Chi-Square, p≦0.05) (50 μg/dish, 2 hour): +
percent of termites on untreated sand vs expected value of 50% (Chi-Square, p≦0.05) (50 μg/dish, 3 hour): +
percent of termites on untreated sand vs expected value of 50% (Chi-Square, p≦0.05) (100 μg/dish, 0.25 hour): +
percent of termites on untreated sand vs expected value of 50% (Chi-Square, p≦0.05) (100 μg/dish, 0.5 hour): +
percent of termites on untreated sand vs expected value of 50% (Chi-Square, p≦0.05) (100 μg/dish, 0.75 hour): +
percent of termites on untreated sand vs expected value of 50% (Chi-Square, p≦0.05) (100 μg/dish, 1 hour): +
percent of termites on untreated sand vs expected value of 50% (Chi-Square, p≦0.05) (100 μg/dish, 2 hour): +
percent of termites on untreated sand vs expected value of 50% (Chi-Square, p≦0.05) (100 μg/dish, 3 hour): +
factor by which the effective termite-repellent concentration is lower than that of nootkatone (relative to nootkatone): 8
concentration effective as termite repellent (time periods up to 3 hr): 12.5 µg
